# Assay results from patent US7265130B2, “NPY Y5 antagonist” (Shionogi & Co., Ltd., priority 1999, dated 2007).
# Tests used:
# human NPY Y5 receptor [1] = biological target: T1, human NPY Y5 receptor (Homo sapiens, UniProt Q15761); test: Affinity for NPY Y5 receptor ([125I] peptide YY binding, CHO cell membranes); conditions: inhibition of specific [125I] peptide YY binding, membranes of CHO cells expressing NPY Y5 receptor
# T1 construct: expressed in transfected cells
# T1 sequence (Q15761 1-445): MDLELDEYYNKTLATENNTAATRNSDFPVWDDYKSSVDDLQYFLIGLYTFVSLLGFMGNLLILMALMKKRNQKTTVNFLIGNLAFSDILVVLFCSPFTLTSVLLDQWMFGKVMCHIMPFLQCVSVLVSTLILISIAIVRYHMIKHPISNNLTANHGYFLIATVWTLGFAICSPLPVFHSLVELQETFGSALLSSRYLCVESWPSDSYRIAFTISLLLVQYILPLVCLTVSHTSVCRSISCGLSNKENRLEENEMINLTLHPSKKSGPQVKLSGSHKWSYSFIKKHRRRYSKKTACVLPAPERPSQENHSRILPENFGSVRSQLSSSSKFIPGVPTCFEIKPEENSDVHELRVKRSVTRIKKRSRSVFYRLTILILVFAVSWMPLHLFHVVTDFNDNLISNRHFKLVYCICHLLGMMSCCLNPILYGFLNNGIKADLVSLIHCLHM
# Outline: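 Membranes from CHO cells stably expressing human NPY Y5 receptor incubated with test compound and [125I] peptide YY (60 pM final) in HEPES-Hanks buffer with 0.1% BSA, pH 7.4, 25° C for 2 hours. Filter-bound radioactivity counted; non-specific binding with 200 nM peptide YY; IC50 against specific binding calculated.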
# human NPY Y5 receptor [2] = biological target: T1, human NPY Y5 receptor; test: cAMP production inhibitory activity in CHO cells; assay type: cell-based; conditions: against 50 nM NPY inhibition of forskolin stimulated cAMP, CHO cells expressing human NPY Y5 receptor
# Outline: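 CHO cells expressing human NPY Y5 receptor preincubated 20 min at 37 °C with 2.5 mM IBMX, then with compound for 5 min. Stimulated with 50 nM NPY plus 10 μM forskolin for 30 min. Reaction stopped with 1N HCl; supernatant cAMP measured by EIA.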
# NPY Y1 receptor = biological target: T2, NPY Y1 receptor (Homo sapiens, UniProt P25929); test: Affinity for NPY Y1 receptor (membranes from SK-N-MC cells); conditions: membranes from Y1-expression cells (human neuroblastoma, SK-N-MC); read-out: Binding IC50 for NPY Y1 receptor
# T2 construct: membranes prepared from Y1-expression cells (human neuroblastoma, SK-N-MC); endogenous in cells; host or cells: SK-N-MC human neuroblastoma cells (membranes)
# T2 sequence (P25929 1-384): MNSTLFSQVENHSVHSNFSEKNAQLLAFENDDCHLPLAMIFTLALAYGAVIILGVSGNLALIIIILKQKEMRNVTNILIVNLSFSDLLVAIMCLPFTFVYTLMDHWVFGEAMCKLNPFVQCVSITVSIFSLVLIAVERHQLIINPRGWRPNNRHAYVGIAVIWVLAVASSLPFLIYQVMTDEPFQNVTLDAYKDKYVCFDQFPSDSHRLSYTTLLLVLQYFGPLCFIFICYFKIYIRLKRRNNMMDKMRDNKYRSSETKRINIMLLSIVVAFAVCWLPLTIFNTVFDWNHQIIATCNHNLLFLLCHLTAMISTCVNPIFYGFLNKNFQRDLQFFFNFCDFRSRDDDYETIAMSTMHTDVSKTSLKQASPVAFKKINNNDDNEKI
# Description: (§1) The membranes prepared from the above CHO cells expressing NPY Y5 receptor, the compound of the present invention and 30,000 cpm [^125I] peptide YY (60 pM of final concentration: Amersham) were incubated in the assay buffer (20 mM HEPES-Hanks buffer containing 0.1% bovine serum albumin, pH 7.4) at 25° C. for 2 hours, and then the mixture was filtered with a glassfilter GF/C treated with polyethyleneimine. After the glassfilter was washed with 50 mM Tris-HCl buffer (pH 7.4), the radioactivity on the filter was measured with a gamma counter. The non-specific binding was detected in the presence of 200 nM of peptide YY. The 50% inhibitory concentration of the test compound against the specific peptide YY binding (IC50 value) was calculated (Inui, A. et al. Endocrinology 131, 2090-2096 (1992)).
# (§2) Using the membranes prepared from Y1-expression cells (human neuroblastoma, SK-N-MC) and the membranes prepared from Y2-expression cells (human neuroblastoma, SMS-KAN), the experiment was carried out in a similar way as Experiment 1 to determine the affinity for NPY Y1 receptor and NPY Y2 receptor.
# NPY Y2 receptor = biological target: T3, NPY Y2 receptor (Homo sapiens, UniProt P49146); test: Affinity for NPY Y2 receptor (membranes from SMS-KAN cells); conditions: membranes from Y2-expression cells (human neuroblastoma, SMS-KAN); read-out: Binding IC50 for NPY Y2 receptor
# T3 construct: membranes prepared from Y2-expression cells (human neuroblastoma, SMS-KAN); endogenous in cells; host or cells: SMS-KAN human neuroblastoma cells (membranes)
# T3 sequence (P49146 1-381): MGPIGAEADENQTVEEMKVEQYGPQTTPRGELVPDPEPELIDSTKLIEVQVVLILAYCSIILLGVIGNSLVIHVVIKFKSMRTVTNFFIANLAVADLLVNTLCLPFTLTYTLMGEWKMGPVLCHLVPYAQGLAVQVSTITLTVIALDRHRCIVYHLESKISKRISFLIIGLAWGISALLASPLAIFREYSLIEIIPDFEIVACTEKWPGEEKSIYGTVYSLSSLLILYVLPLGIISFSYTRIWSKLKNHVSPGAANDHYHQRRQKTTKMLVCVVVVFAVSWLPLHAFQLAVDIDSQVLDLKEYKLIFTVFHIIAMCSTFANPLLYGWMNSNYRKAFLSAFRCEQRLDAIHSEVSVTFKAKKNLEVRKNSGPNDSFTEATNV
# Description: as §1, §2
Structure (SMILES),IC50 (human NPY Y5 receptor [1]) [nM],IC50 (human NPY Y5 receptor [2]) [nM],IC50 (NPY Y1 receptor) [nM],IC50 (NPY Y2 receptor) [nM]
CC(C)(C)S(=O)(=O)NC1CCC(C(=O)Nc2ccc(Cl)cc2Cl)CC1 (stereo not drawn) [Ia-31],3.8,11,≥ 100000,≥ 100000
CC(C)(C)S(=O)(=O)NC1CCC(C(=O)Nc2ccc(Cl)c(Cl)c2)CC1 (stereo not drawn) [Ia-32],0.52,6.7,≥ 100000,≥ 100000
COc1ccc(NC(=O)C2CCC(NS(=O)(=O)C(C)(C)C)CC2)cc1OC (stereo not drawn) [Ia-33],1.8,64,≥ 100000,≥ 100000
C[C@@H]1C[C@H](C)CN(c2ccc(NC(=O)C3CCC(NS(=O)(=O)C(C)(C)C)CC3)cc2)C1 (stereo partly drawn) [Ia-37],0.73,3.8,≥ 100000,≥ 100000
COc1ccc(NC(=O)C2CCC(NS(=O)(=O)C(C)(C)C)CC2)cc1Cl (stereo not drawn) [Ia-39],1.5,3.5,≥ 100000,≥ 100000
C[C@@H]1CN(c2ccc(NC(=O)C3CCC(NS(=O)(=O)C(C)(C)C)CC3)cn2)C[C@H](C)O1 (stereo partly drawn) [Ia-40],2.2,9.3,≥ 100000,≥ 100000
Cc1cc(NC(=O)C2CCC(NS(=O)(=O)C(C)C)CC2)ccc1N1C[C@@H](C)O[C@@H](C)C1 (stereo partly drawn) [Ia-50],1.7,24,≥ 100000,≥ 100000
CC(C)S(=O)(=O)NC1CCC(C(=O)Nc2ccc(N3C[C@@H](C)O[C@@H](C)C3)nc2)CC1 (stereo partly drawn) [Ia-51],1.3,3.4,≥ 100000,≥ 100000
Cc1cc(N2C[C@@H](C)O[C@@H](C)C2)ccc1NC(=O)C1CCC(NS(=O)(=O)C(C)C)CC1 (stereo partly drawn) [Ia-54],0.44,9,≥ 100000,≥ 100000
CC(C)(C)S(=O)(=O)NC1CCC(C(=O)Nc2ccc3oc(=O)ccc3c2)CC1 (stereo not drawn) [Ia-62],1.1,29,≥ 100000,≥ 100000
C[C@@H]1CN(c2ccc(NC(=O)N3CCC(NS(=O)(=O)C(C)(C)C)CC3)cc2)C[C@H](C)O1 [Ia-67],6.3,75,≥ 100000,≥ 100000
C[C@@H]1CN(c2ccc(NC(=O)c3ccc(NS(=O)(=O)C(C)(C)C)cc3)cc2)C[C@H](C)O1 [Ia-124],1.1,22,≥ 100000,≥ 100000
CC(C)(C)S(=O)(=O)Nc1ccc(C(=O)Nc2ccc3ncsc3c2)cc1 [Ia-126],2.3,58,≥ 100000,≥ 100000
CC(C)(C)S(=O)(=O)Nc1ccc(C(=O)Nc2ccc(N3CC=CC3)cc2)cc1 [Ia-139],1.9,25,≥ 100000,≥ 100000
CC(C)S(=O)(=O)NC1CCC(C(=O)Nc2ccc(C(F)(F)F)cc2)CC1 (stereo not drawn) [Ia-140],1,24,≥ 100000,≥ 100000
CC(C)(C)S(=O)(=O)NC1CCC(C(=O)Nc2ccc(C(F)(F)F)cn2)CC1 (stereo not drawn) [Ia-178],4.6,16,≥ 100000,≥ 100000
CC(C)S(=O)(=O)NC1CCC(C(=O)Nc2cccc(OC3CCCC3)c2)CC1 (stereo not drawn) [Ia-199],0.11,1.6,≥ 100000,≥ 100000
CC(C)(C)S(=O)(=O)NC1CCC(C(=O)Nc2ccc(OC3CCOCC3)cc2)CC1 (stereo not drawn) [Ia-200],1.4,18,≥ 100000,≥ 100000
